# How the values were obtained:
# Type in all cases: physicochemical
# [1] = LNP size and polydispersity index (PDI) by dynamic light scattering (DLS)
# [2] = LNP Zeta potential measured using a Zetasizer (Malvern); conditions: for Zeta potential: hEPO mRNA, N:P 6; for Zeta potential (mV): Table 10, LNP with hEPO mRNA, Lipid:DSPC:Cholesterol:DMG-PEG2k 50:10:38.5:1.5 mol %, N:P ratio 6
# [3] = Encapsulation efficiency (EE %) by fluorescence based Ribogreen assay
# [4] = Table 6, LNP 50:10:38.5:1.5 mol %, hEPO mRNA, N:P 6
# [5] = Table 6, LNP 60:0:38.5:1.5 mol %, hEPO mRNA, N:P 6
# [6] = Table 6, LNP lipid:DSPC:Cholesterol:DMG-PEG2k 50:10:38.5:1.5 mol %, hEPO mRNA, N:P 6
# [7] = Table 6, LNP 50:10:38.5:1.5 mol %
# [8] = Table 6, LNP 60:0:38.5:1.5 mol %
# [9] = Table 7, LNP 30:10:58.5:1.5 mol %, helper lipid DOPC, hEPO mRNA, N:P 6
# [10] = Table 7, LNP 30:10:58.5:1.5 mol %, helper lipid DOPE, hEPO mRNA, N:P 6
# [11] = Table 7, LNP 30:10:58.5:1.5 mol %, helper lipid DSPC, hEPO mRNA, N:P 6
# [12] = Table 7, LNP 50:10:38.5:1.5 mol %, helper lipid DOPC, hEPO mRNA, N:P 6
# [13] = Table 7, LNP 50:10:38.5:1.5 mol %, helper lipid DOPE, hEPO mRNA, N:P 6
# [14] = Table 7, LNP 50:10:38.5:1.5 mol %, helper lipid DSPC, hEPO mRNA, N:P 6
# [15] = Table 8, LNP 50:10:38.5:1.5 mol %, hEPO mRNA, N:P 6
# [16] = Table 8, LNP Lipid:DSPC:Cholesterol:DMG-PEG2k 50:10:38.5:1.5 mol %, hEPO mRNA, N:P 6
# [17] = Table 8, LNP 50:10:38.5:1.5 mol %
# [18] = Table 10, LNP with hEPO mRNA, Lipid:DSPC:Cholesterol:DMG-PEG2k 50:10:38.5:1.5 mol %, N:P ratio 6, DLS
# [19] = Table 10, LNP with hEPO mRNA, Lipid:DSPC:Cholesterol:DMG-PEG2k 50:10:38.5:1.5 mol %, N:P ratio 6, Ribogreen assay
compound,measurement,setting,value
CCCCCCCCC(CCCCCC)C(=O)OCCN(CCOC(=O)C(CCCCCC)CCCCCCCC)C(=O)CCC(C)N (centres unmarked) [Compound 805],PDI,[1]; [4],0.214
same,PDI,[1]; [5],0.137
same,Size,[1]; [5],84.7 nm
same,Size,[1]; [6],110.2 nm
same,Zeta potential,[2]; [7],−0.2 mV
same,Zeta potential,[2]; [8],3 mV
same,Encapsulation Efficiency %,[3]; [4],98.3%
same,Encapsulation Efficiency %,[3]; [5],99.9%
CCCCCCCCC(CCCCCC)C(=O)OCCN(CCOC(=O)C(CCCCCC)CCCCCCCC)C(=O)CCCN(C)C (centres unmarked) [Compound 807],PDI,[1]; [4],0.126
same,PDI,[1]; [5],0.079
same,Size,[1]; [5],114.7 nm
same,Size,[1]; [6],77.7 nm
same,Zeta potential,[2]; [7],−1.9 mV
same,Zeta potential,[2]; [8],−0.6 mV
same,Encapsulation Efficiency %,[3]; [4],98.3%
same,Encapsulation Efficiency %,[3]; [5],99.7%
CCCCCCCCC(CCCCCC)C(=O)OCCN(CCOC(=O)C(CCCCCC)CCCCCCCC)C(=O)CCN(C)C (centres unmarked) [Compound 808],PDI,[1]; [4],0.114
same,PDI,[1]; [5],0.012
same,Size,[1]; [5],131.4 nm
same,Size,[1]; [6],96.3 nm
same,PDI,[1]; [9],0.113
same,Size,[1]; [9],120.1 nm
same,PDI,[1]; [10],0.105
same,Size,[1]; [10],79.1 nm
same,PDI,[1]; [11],0.033
same,Size,[1]; [11],93.8 nm
same,PDI,[1]; [12],0.131
same,Size,[1]; [12],99.1 nm
same,PDI,[1]; [13],0.214
same,Size,[1]; [13],134.5 nm
same,PDI,[1]; [14],0.13
same,Size,"[1]; Table 7, LNP ionizable lipid:Helper Lipid:Cholesterol:DMG-PEG2k 50:10:38.5:1.5 mol %, helper lipid DSPC, hEPO mRNA, N:P 6",114.4 nm
same,Zeta potential,[2]; [7],−0.3 mV
same,Zeta potential,[2]; [8],−0.4 mV
same,Zeta potential,"[2]; Table 7, LNP 30:10:58.5:1.5 mol %, helper lipid DOPC",−9.115 mV
same,Zeta potential,"[2]; Table 7, LNP 30:10:58.5:1.5 mol %, helper lipid DOPE",−10.16 mV
same,Zeta potential,"[2]; Table 7, LNP 30:10:58.5:1.5 mol %, helper lipid DSPC",−7.184 mV
same,Zeta potential,"[2]; Table 7, LNP 50:10:38.5:1.5 mol %, helper lipid DOPC",−8.233 mV
same,Zeta potential,"[2]; Table 7, LNP 50:10:38.5:1.5 mol %, helper lipid DOPE",−7.52 mV
same,Zeta potential,"[2]; Table 7, LNP 50:10:38.5:1.5 mol %, helper lipid DSPC",−7.7 mV
same,Encapsulation Efficiency %,[3]; [4],97%
same,Encapsulation Efficiency %,[3]; [5],99.2%
same,Encapsulation Efficiency %,[3]; [9],99.5%
same,Encapsulation Efficiency %,[3]; [10],99.7%
same,Encapsulation Efficiency %,[3]; [11],99.6%
same,Encapsulation Efficiency %,[3]; [12],98.8%
same,Encapsulation Efficiency %,[3]; [13],99.5%
same,Encapsulation Efficiency %,[3]; [14],98.8%
CCCCCCCCC(CCCCCC)C(=O)OCCN(CCOC(=O)C(CCCCCC)CCCCCCCC)C(=O)CCNC.Cl (centres unmarked) [Compound 904],PDI,[1]; [15],0.189
same,Size,[1]; [16],86.7 nm
same,Zeta potential,[2]; [17],−1.6 mV
same,Encapsulation Efficiency %,[3]; [15],100%
CCCCCCCCC(CCCCCC)C(=O)OCCN(CCOC(=O)C(CCCCCC)CCCCCCCC)C(=O)CCNCC.Cl (centres unmarked) [Compound 905],PDI,[1]; [15],0.204
same,Size,[1]; [16],70.4 nm
same,Zeta potential,[2]; [17],−2.9 mV
same,Encapsulation Efficiency %,[3]; [15],100%
CCCCCCCCC(CCCCCC)C(=O)OCCN(CCOC(=O)C(CCCCCC)CCCCCCCC)C(=O)CCNCCC.Cl (centres unmarked) [Compound 908],PDI,[1]; [15],0.215
same,Size,[1]; [16],69.2 nm
same,Zeta potential,[2]; [17],−8 mV
same,Encapsulation Efficiency %,[3]; [15],100%
CCCCCCCC/C=C\CCCCCCCC(=O)OCCN(CCOC(=O)C(CCCCCC)CCCCCCCC)C(=O)CCN(CC)CC (centres unmarked) [Compound 917a],PDI,[1]; [18],0.124
same,Size (nm),[1]; [18],82.8 nm
same,Zeta potential (mV),[2],−5.5 mV
same,Encapsulation Efficiency %,[3]; [19],43.4%
CC/C=C\CCCCC(=O)OCCN(CCOC(=O)C(CCCCCC)CCCCCCCC)C(=O)CCN(CC)CC (centres unmarked) [Compound 917c],PDI,[1]; [18],0.122
same,Size (nm),[1]; [18],106.9 nm
same,Zeta potential (mV),[2],−4.5 mV
same,Encapsulation Efficiency %,[3]; [19],84%
CCCCCCCCC(CCCCCC)C(=O)OCCN(CCOC(=O)CCCCCCC(C)C)C(=O)CCN(CC)CC (centres unmarked) [Compound 917d],PDI,[1]; [18],0.096
same,Size (nm),[1]; [18],122 nm
same,Zeta potential (mV),[2],−3.3 mV
same,Encapsulation Efficiency %,[3]; [19],60.3%
CCCCCCCCCC(CCCCCCCCC)C(=O)OCCN(CCOC(=O)C(CCCCCCCCC)CCCCCCCCC)C(=O)CCN(C)CC [Compound 917e],PDI,[1]; [18],0.222
same,Size (nm),[1]; [18],52.5 nm
same,Zeta potential (mV),[2],−4.2 mV
same,Encapsulation Efficiency %,[3]; [19],95.4%
CCCCCCCCCC(CCCCCCCCC)C(=O)OCCN(CCOC(=O)C(CCCCCCCCC)CCCCCCCCC)C(=O)CCN(CC)CC [Compound 917f],PDI,[1]; [18],0.314
same,Size (nm),[1]; [18],51.5 nm
same,Zeta potential (mV),[2],−11.1 mV
same,Encapsulation Efficiency %,[3]; [19],91.9%
CCCCCCCCCC(CCCCCCCCC)C(=O)OCCN(CCOC(=O)C(CCCCCCCCC)CCCCCCCCC)C(=O)CCN(C)CCC [Compound 917g],PDI,[1]; [18],0.281
same,Size (nm),[1]; [18],49.2 nm
same,Zeta potential (mV),[2],−10.2 mV
same,Encapsulation Efficiency %,[3]; [19],93.5%
CCCCCCCC/C=C\CCCCCCCC(=O)OCCN(CCOC(=O)C(CCCCCC)CCCCCCCC)C(=O)CCN1CCCCC1 (centres unmarked) [Compound 917h],PDI,[1]; [18],0.137
same,Size (nm),[1]; [18],89.6 nm
same,Zeta potential (mV),[2],−8.2 mV
same,Encapsulation Efficiency %,[3]; [19],91.4%
CCCCCCCCC(CCCCCC)C(=O)OCCN(CCOC(=O)C(CCCCCC)CCCCCCCC)C(=O)C(C)CNC.Cl (centres unmarked) [Compound 924],PDI,[1]; [15],0.142
same,Size,[1]; [16],87.2 nm
same,Zeta potential,[2]; [17],−8.7 mV
same,Encapsulation Efficiency %,[3]; [15],99.9%
CCCCCCCCC(CCCCCC)C(=O)OCCN(CCOC(=O)C(CCCCCC)CCCCCCCC)C(=O)C(C)CNCC.Cl (centres unmarked) [Compound 925],PDI,[1]; [15],0.146
same,Size,[1]; [16],79.6 nm
same,Zeta potential,[2]; [17],−6.1 mV
same,Encapsulation Efficiency %,[3]; [15],99.9%
CCCCCCCCC(CCCCCC)C(=O)OCCN(CCOC(=O)C(CCCCCC)CCCCCCCC)C(=O)C(C)CNCCC.Cl (centres unmarked) [Compound 928],PDI,[1]; [15],0.177
same,Size,[1]; [16],75.5 nm
same,Zeta potential,[2]; [17],−11.9 mV
same,Encapsulation Efficiency %,[3]; [15],91.8%
CCCCCCCCC(CCCCCC)C(=O)OCCN(CCOC(=O)C(CCCCCC)CCCCCCCC)C(=O)CCCN(C)C (centres unmarked) [Compound 931],PDI,[1]; [15],0.117
same,Size,[1]; [16],125.8 nm
same,Zeta potential,[2]; [17],−8.457 mV
same,Encapsulation Efficiency %,[3]; [15],99.9%
CCCCCCCCCC(CCCCCCCC)C(=O)OCCN(CCOC(=O)C(CCCCCCCC)CCCCCCCCC)C(=O)CCCN(C)C.Cl (centres unmarked) [Compound 933],PDI,[1]; [15],0.301
same,Size,[1]; [16],110.9 nm
same,Zeta potential,[2]; [17],−12.2 mV
same,Encapsulation Efficiency %,[3]; [15],99.2%
CCCCCCCCC(CCCCCC)C(=O)OCCN(CCOC(=O)C(CCCCCC)CCCCCCCC)C(=O)CCCNCC.Cl (centres unmarked) [Compound 935],PDI,[1]; [15],0.167
same,Size,[1]; [16],111.9 nm
same,Zeta potential,[2]; [17],−9.5 mV
same,Encapsulation Efficiency %,[3]; [15],99.9%
CCCCCCCCC(CCCCCC)C(=O)OCCN(CCOC(=O)C(CCCCCC)CCCCCCCC)C(=O)CCCN(C)CC.Cl (centres unmarked) [Compound 936],PDI,[1]; [15],0.175
same,Size,[1]; [16],110.1 nm
same,Zeta potential,[2]; [17],−10.7 mV
same,Encapsulation Efficiency %,[3]; [15],99.9%
CCCCCCCCC(CCCCCC)C(=O)OCCN(CCOC(=O)C(CCCCCC)CCCCCCCC)C(=O)CCCN(CC)CC.Cl (centres unmarked) [Compound 937],PDI,[1]; [15],0.136
same,Size,[1]; [16],144 nm
same,Zeta potential,[2]; [17],−9.2 mV
same,Encapsulation Efficiency %,[3]; [15],99.9%
CCCCCCCCC(CCCCCC)C(=O)OCCN(CCOC(=O)C(CCCCCC)CCCCCCCC)C(=O)CCCN(C)CCC.Cl (centres unmarked) [Compound 938],PDI,[1]; [15],0.248
same,Size,[1]; [16],103.7 nm
same,Zeta potential,[2]; [17],−18.3 mV
same,Encapsulation Efficiency %,[3]; [15],99.9%
CCCCCCCCC(CCCCCC)C(=O)OCCN(CCOC(=O)C(CCCCCC)CCCCCCCC)C(=O)CCCN(C)CCC.Cl (centres unmarked) [Compound 939],PDI,[1]; [15],0.172
same,Size,[1]; [16],103.5 nm
same,Zeta potential,[2]; [17],−14.9 mV
same,Encapsulation Efficiency %,[3]; [15],98.5%
